Mutagenic call and call data for 21 compounds are collected here from PubChem BioAssay AID1259408 (Genetic Toxicology Data Bank (GENE-TOX), 2018).

Calls of active or inactive are those of the source. The rule behind the calls is not given here.

This series deals with GENE-TOX genotoxicity assays, various organisms and cells. Kind of series: GENE-TOX mutagenicity studies. As to conditions: for call: Assay Type: In vivo carcinogenicity studies.
Where [1] appears, read: Species/Cell Type: Salmonella typhimurium (one or more of the five standard strains: TA98, TA100, TA1535, TA1537, and TA1538), Assay Type: Histidine reverse gene mutation, Ames assay, Assay Code: SAL+, Evaluation Type: Evaluation A (Pre-1980).
The mark [2] stands for this setting: Species/Cell Type: Salmonella typhimurium (one or more of the five standard strains: TA98, TA100, TA1535, TA1537, and TA1538), Assay Type: Histidine reverse gene mutation, Ames assay, Assay Code: SAL-, Evaluation Type: Evaluation A (Pre-1980).
Where [3] appears, read: Species/Cell Type: Drosophila melanogaster, Assay Type: Sex-linked recessive lethal gene mutation, Assay Code: SRLT, Evaluation Type: Evaluation A (Pre-1980).
Where [4] appears, read: Species/Cell Type: Escherichia coli polA (W3119 vs P3478), Assay Type: Rec-assay, DNA effects (bacterial DNA repair), Assay Code: RE1T, Evaluation Type: Evaluation A (Pre-1980).
The mark [5] stands for this setting: Species/Cell Type: Saccharomyces cerevisiae, Assay Type: Mitotic recombination or gene conversion, Assay Code: YEH-, Evaluation Type: Evaluation A (Pre-1980).
Where [6] appears, read: Species/Cell Type: Salmonella typhimurium, Assay Type: Forward and reverse gene mutation, host-mediated assay, Assay Code: HMA-, Evaluation Type: Evaluation A (Pre-1980).
Where [7] appears, read: Species/Cell Type: Syrian hamster embryo (SHE) cells, Assay Type: Cell transformation, clonal assay, Assay Code: CTC+, Evaluation Type: Evaluation A (Pre-1980).
Where [8] appears, read: Species/Cell Type: Mammalian polychromatic erythrocytes, Assay Type: Micronucleus test, chromosome aberrations, Assay Code: MNT+, Evaluation Type: Evaluation B (Post-1980).
[9] abbreviates: Species/Cell Type: Nonhuman, Assay Code: CCG+L, Evaluation Type: Evaluation A (Pre-1980).

Turning to `CCCCCCCCCCCCCCCC(=O)OC/C=C(C)/C=C/C=C(C)/C=C/C1=C(C)CCCC1(C)C`, for the setting “Species/Cell Type: Human, Assay Type: Sister-chromatid exchange (SCE) in vitro, Assay Code: SC1+D, Dose Response: With dose response, Evaluation Type: Evaluation A (Pre-1980)”, the mutagenic call was “active; positive”.

On to `COc1cc(NO)ccc1N=Nc1ccccc1`, for which the mutagenic call (Species/Cell Type: Salmonella typhimurium (one or more of the five standard strains: TA98, TA100, TA1535, TA1537, and TA1538), Assay Type: Histidine reverse gene mutation, Ames assay, Assay Code: SALT, Evaluation Type: Evaluation A (Pre-1980)) is reported as “no conclusion”.

For `OCC(Br)CBr` (configuration not stated), under setting [1], the mutagenic call is “active; positive”.

Consider `O=C(O)CN(CCN(CC(=O)O)CC(=O)O)CC(=O)O`, for which the mutagenic call by setting is: (Species/Cell Type: Allium cepa, Assay Type: Chromosome aberrations, Assay Code: ALC+, Evaluation Type: Evaluation A (Pre-1980)) “active; positive”; (Species/Cell Type: Arabidopsis species, Assay Type: Gene mutation, Assay Code: ARM-, Evaluation Type: Evaluation A (Pre-1980)) “inactive; negative”; under setting [2], “inactive; negative”. For the same compound, under “Species/Cell Type: Nonhuman, Assay Code: CCG-, Evaluation Type: Evaluation A (Pre-1980)”, the call was “inactive; negative”.

Regarding `C/C=C1/C[C@@H](C)[C@](O)(CO)C(=O)OCC2=CC[N+]3([O-])CC[C@@H](OC1=O)[C@@H]23` (some centres not stated), the mutagenic call under setting [3] is “no conclusion”.

As to `OCc1c2ccccc2cc2c1ccc1ccccc12`, where the note is “Species/Cell Type: Mouse prostate cells, Assay Type: Cell transformation, Assay Code: CTM+, Evaluation Type: Evaluation A (Pre-1980)”, the mutagenic call is “active; positive”.

Regarding `CS(C)=O.CS(C)=O.CS(C)=O.CS(C)=O.[Cl][Ru][Cl]`, the mutagenic call under setting [1] was “active; positive”.

Regarding `COc1cc2c(c3oc(=O)c4c(c13)CCOC4=O)C1C=COC1O2` (configuration not stated), the mutagenic call reads like this: (Species/Cell Type: Aspergillus nidulans, Assay Type: Forward gene mutation, Assay Code: ASF+*, Activation: With metabolic activation, Evaluation Type: Evaluation A (Pre-1980)) “active; positive”; under setting [3], “no conclusion”; (Species/Cell Type: Drosophila melanogaster, Sex: Male, Assay Type: Heritable translocation test, chromosome aberrations, Assay Code: DHTT, Evaluation Type: Evaluation A (Pre-1980)) “no conclusion”; (Species/Cell Type: Human lymphocytes or leukocytes, Assay Type: Chromosome aberrations in vitro, Assay Code: CY7T, Evaluation Type: Evaluation A (Pre-1980)) “no conclusion”; (Species/Cell Type: Vicia faba, Assay Type: Chromosome aberrations, Assay Code: VIC+, Evaluation Type: Evaluation A (Pre-1980)) “active; positive”.

`NNC(=O)NC(=O)NN`: where the note is “Species/Cell Type: Escherichia coli WP2, Assay Type: Tryptophan reverse gene mutation, Assay Code: WP2+, Evaluation Type: Evaluation A (Pre-1980)”, the mutagenic call was “active; positive”.

For `CCSCC[C@H](N)C(=O)O`, the mutagenic call (Species/Cell Type: Escherichia coli polA (W3110 vs P3478), Assay Type: Rec-assay, DNA effects (bacterial DNA repair), Assay Code: RE2T, Evaluation Type: Evaluation A (Pre-1980)) is “no conclusion”; the mutagenic call under setting [4] is “no conclusion”; the mutagenic call (Species/Cell Type: Human diploid fibroblasts, Assay Type: Unscheduled DNA synthesis (UDS) in vitro, DNA effects, Assay Code: UDH-, Evaluation Type: Evaluation A (Pre-1980)) was “inactive; negative”; the mutagenic call (Species/Cell Type: Human lymphocytes, Assay Type: Sister-chromatid exchange (SCE) in vitro, Assay Code: SCL+, Evaluation Type: Evaluation B (Post-1980)) is “active; positive”; the mutagenic call (Species/Cell Type: Human, Assay Type: Sister-chromatid exchange (SCE) in vitro, Assay Code: SC1+, Evaluation Type: Evaluation B (Post-1980)) was “active; positive”; the mutagenic call (Species/Cell Type: Mammalian polychromatic erythrocytes, Assay Type: Micronucleus test, chromosome aberrations, Assay Code: MNT+, Evaluation Type: Evaluation A (Pre-1980)) was “active; positive”. The mutagenic call is “active; positive” (Species/Cell Type: Mouse, Sex: Male, Assay Type: Sperm morphology, Assay Code: SPI+, Evaluation Type: Evaluation A (Pre-1980)); “inactive; negative” under setting [5]; “inactive; negative” under setting [2]; “inactive; negative” under setting [6]; “active; positive” under setting [7].

On to `C[C@@H]1[C@H](O)[C@@H](C)/C=C/C=C/CC/C=C/C=C/C=C/C=C/C(O[C@H]2O[C@H](C)[C@@H](O)[C@H](N)[C@@H]2O)CC2O[C@](O)(CC(O)C(O)CCC(O)CC(O)CC(O)CC(=O)O[C@H]1C)CC(O)C2C(=O)O` (some centres not stated), for which the mutagenic call (Species/Cell Type: Neurospora crassa, Assay Type: Aneuploidy, chromosome aberrations, Assay Code: NEN-, Evaluation Type: Evaluation A (Pre-1980)) was “inactive; negative”.

As to `Cc1cc(C(=O)NCCc2ccc(S(=O)(=O)NC(=O)NN3CCCCCC3)cc2)no1`, the mutagenic call (Species/Cell Type: Nonhuman, Assay Type: Sister-chromatid exchange (SCE) in vivo, Assay Code: SC3T, Evaluation Type: Evaluation B (Post-1980)) is reported as “no conclusion”.

Consider `CCCCN1CC1`, for which the mutagenic call (Species/Cell Type: Schizosaccharomyces pombe, Assay Type: Reverse gene mutation, Assay Code: YEZ+, Evaluation Type: Evaluation A (Pre-1980)) was “active; positive”.

As to `CCOc1ccc(NC(C)=O)cc1`, the mutagenic call runs as follows: under setting [8], “active; positive”; (Species/Cell Type: Nonhuman, Assay Type: Sister-chromatid exchange (SCE) in vivo, Assay Code: SC3+, Evaluation Type: Evaluation B (Post-1980)) “active; positive”. The call (Species/Cell Type: Nonhuman, Assay Code: CCG+, Evaluation Type: Evaluation A (Pre-1980)) was “active; positive”.

In the case of `C=COC(C)=O`, the mutagenic call (Species/Cell Type: Human lymphocytes, Assay Type: Sister-chromatid exchange (SCE) in vitro, Assay Code: SCL+D, Dose Response: With dose response, Evaluation Type: Evaluation B (Post-1980)) is “active; positive”; the mutagenic call (Species/Cell Type: Human, Assay Type: Sister-chromatid exchange (SCE) in vitro, Assay Code: SC1+D, Dose Response: With dose response, Evaluation Type: Evaluation B (Post-1980)) was “active; positive”; the mutagenic call under setting [8] is “active; positive”; the mutagenic call (Species/Cell Type: Nonhuman, Assay Type: Sister-chromatid exchange (SCE) in vitro, Assay Code: SC2+D, Dose Response: With dose response, Evaluation Type: Evaluation B (Post-1980)) was “active; positive”; the mutagenic call under setting [2] was “inactive; negative”; the mutagenic call (Species/Cell Type: Syrian hamster embryo (SA7/SHE) cells, Assay Type: Cell transformation, viral enhanced, Assay Code: CT7+, Evaluation Type: Evaluation A (Pre-1980)) was “active; positive”. Moreover, the call under setting [9] was “active; positive”.

Take `O=C1CCC(=O)O1`: the mutagenic call reads like this: (Species/Cell Type: Escherichia coli polA (W3110 vs P3478), Assay Type: Rec-assay, DNA effects (bacterial DNA repair), Assay Code: RE2-, Evaluation Type: Evaluation A (Pre-1980)) “inactive; negative”; (Species/Cell Type: Escherichia coli polA (W3119 vs P3478), Assay Type: Rec-assay, DNA effects (bacterial DNA repair), Assay Code: RE1-, Evaluation Type: Evaluation A (Pre-1980)) “inactive; negative”; (Species/Cell Type: Mouse lymphoma (L5178Y) cells, Assay Type: Forward gene mutation at the thymidine kinase (TK) locus, chromosome aberrations, Assay Code: L51-, Evaluation Type: Evaluation A (Pre-1980)) “inactive; negative”; under setting [5], “inactive; negative”; under setting [2], “inactive; negative”; under setting [6], “inactive; negative”. Besides, the mutagenic call under setting [7] is “active; positive”. Further, the call under setting [9] was “active; positive”.

For the compound `C#CC(C)OC(=O)Nc1cccc(Cl)c1` (configuration not stated) (tested in a mixture with another compound), the mutagenic call (Species/Cell Type: Saccharomyces cerevisiae, Assay Type: Mitotic recombination or gene conversion, Assay Code: YEC-, Evaluation Type: Evaluation A (Pre-1980)) is “inactive; negative”.

As for `COc1ccc(C(=O)/C(Br)=C/C(=O)O)cc1`, the mutagenic call was “active; positive” (Species/Cell Type: Human bone marrow, Assay Type: Chromosome aberrations in vivo, Assay Code: CY5+, Evaluation Type: Evaluation A (Pre-1980)) and “active; positive” (Species/Cell Type: Nonhuman bone marrow, Assay Type: Chromosome aberrations, in vivo, Assay Code: CY#+D, Dose Response: With dose response, Evaluation Type: Evaluation A (Pre-1980)).

Regarding `O=C1CCc2c1ccc1c2ccc2ccccc21`, the mutagenic call was “no conclusion” (Species/Cell Type: Human lymphocytes, Assay Type: Sister-chromatid exchange (SCE) in vitro, Assay Code: SCLT, Evaluation Type: Evaluation B (Post-1980)); “no conclusion” (Species/Cell Type: Human, Assay Type: Sister-chromatid exchange (SCE) in vitro, Assay Code: SC1T, Evaluation Type: Evaluation B (Post-1980)); “active; positive” (Species/Cell Type: Salmonella typhimurium (one or more of the five standard strains: TA98, TA100, TA1535, TA1537, and TA1538), Assay Type: Histidine reverse gene mutation, Ames assay, Assay Code: SAL+*, Activation: With metabolic activation, Evaluation Type: Evaluation A (Pre-1980)).

Take `O=C(O)O`: the mutagenic call is, setting by setting: (Species/Cell Type: Bacillus subtilis (H17 vs M45), Assay Type: Rec-assay, spot test, DNA effects (bacterial DNA repair), Assay Code: REW+, Evaluation Type: Evaluation A (Pre-1980)) “active; positive”; under setting [4], “no conclusion”.

As for `C#CCNC(=NCCSCc1nc[nH]c1C)NC#N`, the mutagenic call (Species/Cell Type: Mammalian polychromatic erythrocytes, Assay Type: Micronucleus test, chromosome aberrations, Assay Code: MNT-, Evaluation Type: Evaluation B (Post-1980)) is “inactive; negative”.
